Results taken from patent publication US10253041B2, “7-phenylethylamino-4H-pyrimido[4,5-d][1,3]oxazin-2-one compounds and their use as mutant IDH1 inhibitors” (Eli Lilly and Company, priority 2015, dated 2019).

Key:
[1] = biological target: T1, IDH1/R132H (Homo sapiens, UniProt O75874, R132H); assay: Biochemical assay for IDH1 R132H mutant enzyme (2HG by RapidFire MS); conditions: mean ± standard deviation of the mean; 90 minutes reaction
T1 construct: His-tag (N); made in house; host or cells: E. coli
Method: (§1) IDH1-R132H, IDH1-R132C, IDH2-R172K and IDH2-R140Q mutant enzymes catalyze the conversion of αKG to 2HG. 2HG is analyzed using in-line solid phase extraction and mass spectrometry. This analysis is carried out in a RapidFire® instrument coupled to a 6460 triple quadrupole mass spectrometer (G6460A Agilent).
(§2) IDH1 mutant (R132H and R132C) and IDH2 mutant (R140Q and R172K) proteins containing N-terminal His-tag are expressed in E. coli and purified using nickel affinity chromatography. The enzyme assays are carried out in V-bottom 96 well polypropylene plates containing 100 mM Tris-HCl buffer, 1 mM DTT, 0.005% TRITON™ X-100, 120 mM NaCl. For IDH1 R132H, α-ketoglutarate, NADPH and MnCl2 are included at final concentrations of 300 μM, 2.5 μM and 300 μM respectively. For IDH1 R132C, α-ketoglutarate, NADPH and MnCl2 are included at final concentrations of 100 μM, 10 μM and 100 μM respectively. For IDH2 R172K, α-ketoglutarate, NADPH and MnCl2 are included at final concentrations of 150 μM, 10 μM and 150 μM respectively. For IDH2 R140Q, α-ketoglutarate, NADPH and MnCl2 are included at final concentrations of 3000 μM, 10 μM and 100 μM respectively. Final pH=7.0. Test compound dissolved in DMSO stock is diluted in the reaction mix at a final DMSO concentration of 4%. Compounds are tested in dose-response format. The assay is started by addition of enzyme. Enzymes are used at the following final concentrations: IDH1 R132H, 2 nM; IDH1 R132C, 0.5 nM; IDH2 R172K, 1.2 nM; IDH2 R140Q, 1.2 nM. After 90 minutes the reaction is quenched by adding ACN (50:50) containing 3-hydroxy-1,5-pentanedioic-2,2,3,4,4-d5 acid (5d5-3HG) as an internal standard for mass spectrometry analysis and quantitation of reaction product. 2-Hydroxyglutarate (2HG) in quenched samples is separated using strong anionic exchange column chromatography (Phenomenex Strata-X-A SecurityGuard) and analyzed by mass spectrometry in a 6460 triple quadrupole mass spectrometer (G6460A Agilent). The 2HG signal detected is transformed into an analyte concentration using a calibration curve generated using known 2HG concentrations. […] IC50 values are obtained from the individual % inhibition values at different compound concentrations using a 4-parameter equation. These calculations are carried out using Activity Base (IDBS) or Screener (Genedata) data analysis programs.

[2] = biological target: T2, IDH1/R132C (Homo sapiens, UniProt O75874, R132C); assay: Biochemical assay for IDH1 R132C mutant enzyme (2HG by RapidFire MS); conditions: mean ± standard deviation of the mean; 90 minutes reaction
T2 construct: His-tag (N); made in house; host or cells: E. coli
Method: as §1, §2

[3] = biological target: T3, IDH2 Wild-Type (Homo sapiens, UniProt P48735); assay: Biochemical assay for wild-type IDH2 enzyme (αKG by LC-MS); conditions: mean ± standard deviation of the mean
T3 construct: His-tag (N); made in house; host or cells: E. coli
T3 sequence (P48735 40-452): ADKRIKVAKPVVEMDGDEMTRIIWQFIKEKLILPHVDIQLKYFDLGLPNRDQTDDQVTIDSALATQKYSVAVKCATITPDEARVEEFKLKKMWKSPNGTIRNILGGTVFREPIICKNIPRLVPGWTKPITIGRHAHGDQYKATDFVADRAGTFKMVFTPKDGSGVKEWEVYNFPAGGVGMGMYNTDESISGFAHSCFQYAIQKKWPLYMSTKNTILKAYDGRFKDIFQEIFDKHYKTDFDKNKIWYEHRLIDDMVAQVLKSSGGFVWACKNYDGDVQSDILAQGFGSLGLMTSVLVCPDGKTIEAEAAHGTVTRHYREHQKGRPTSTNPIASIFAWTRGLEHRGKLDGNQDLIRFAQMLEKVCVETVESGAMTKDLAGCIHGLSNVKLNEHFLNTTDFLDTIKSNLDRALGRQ
Method: IDH1 and IDH2 enzymes catalyze the conversion of isocitrate to αKG. Wild-type IDH1 (National Center for Biotechnology Information, Accession: NP_001269316.1) and IDH2 (National Center for Biotechnology Information, Accession: EAX02082.1) proteins containing N-terminal His-tag are expressed in E. coli and purified using nickel affinity chromatography. The enzyme assays are carried out in V-bottom 96 well polypropylene plates containing 100 mM Tris-HCl buffer at pH 7.5, 1 mM DTT, 0.005% TRITON™ X-100, 120 mM NaCl. For the IDH1 wild-type assay isocitrate, NADP^+ and MnCl2 are included at the concentrations of 85 μM, 50 μuM and 20 μM respectively. For the IDH2 wild-type assay isocitrate, NADP^+ and MnCl2 are included at the concentrations of 30 μM, 50 μM and 10 μM respectively. Inhibitors dissolved in a DMSO stock solution are diluted in the reaction mixture at a final DMSO concentration of 4%. The enzyme assay is terminated (quenched) by adding ACN (50:50) containing d6-2-ketopentanedioic acid (d6-αKG) as an internal standard for mass spectrometry analysis. Ten microliters of reaction mixture is combined with 100 μL of water, 50 μL of 1 M O-benzylhydroxylamine in pyridine buffer (8.6% pyridine, pH 5), and 50 μL of 1 M N-(3-dimethylaminopropyl)-N-ethylcarbodiimide hydrochloride (EDC) in pyridine buffer. Following derivatization at room temperature for one hour, samples are extracted with 600 μL of EtOAc. Four hundred […] of the upper layer is removed, dried under heated nitrogen and reconstituted with 100 μL of MeOH/water (1:1). Ten μL of derivatized sample is injected onto an LC-MS system consisting of a Shimadzu Prominence 20A HPLC system and a The Thermo Quantum Ultra™ triple quadrupole mass spectrometer. Analytes are separated on a Waters XBridge™ C18 column (2.1×50 mm, […]) with a flow rate of 0.6 mL/minute. Mobile phase A is 0.1% formic acid in water and mobile phase B is MeOH. The αKG signal detected is transformed into analyte concentration using a calibration curve generated using known αKG concentrations. […] IC50 values are obtained from the individual % inhibition values at different compound concentrations using a 4-parameter equation. These calculations are carried out using Activity Base (IDBS) or Screener (Genedata) data analysis programs.

T1 sequence (O75874 whole entry R132H): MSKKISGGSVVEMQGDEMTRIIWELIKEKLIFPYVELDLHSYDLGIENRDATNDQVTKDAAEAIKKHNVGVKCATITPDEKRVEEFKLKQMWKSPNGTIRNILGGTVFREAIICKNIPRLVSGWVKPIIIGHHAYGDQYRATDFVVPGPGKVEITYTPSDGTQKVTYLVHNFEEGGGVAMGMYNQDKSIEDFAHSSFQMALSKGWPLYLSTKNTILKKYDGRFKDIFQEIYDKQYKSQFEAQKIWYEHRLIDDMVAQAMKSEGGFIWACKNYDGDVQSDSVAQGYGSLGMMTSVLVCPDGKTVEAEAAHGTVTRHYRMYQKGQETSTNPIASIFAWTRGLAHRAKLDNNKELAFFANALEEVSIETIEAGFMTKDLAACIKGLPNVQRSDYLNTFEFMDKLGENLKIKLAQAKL
T2 sequence (O75874 whole entry R132C): as the sequence (O75874 whole entry R132H) above, with H132C counted along it

Row | Structure (SMILES) | IC50 [1] [nM] | IC50 [2] [nM] | IC50 [3] [nM]
1 | C=CC(=O)N1CCN(Cc2ccc([C@H](C)Nc3ncc4c(n3)N(C(C)C)C(=O)OC4)cc2)CC1 [Example 1, 1-Isopropyl-7-[[(1S)-1-[4-[(4-prop-2-enoylpiperazin-1-yl)methyl]phenyl]ethyl]amino]-4H-pyrimido[4,5-d][1,3]oxazin-2-one] | 29.1 ± 10.7 | 26.6 ± 10.3 | 10700 ± 1650
2 | C=CC(=O)N1CCN(Cc2ccc([C@H](C)Nc3ncc4c(n3)N(CC)C(=O)OC4)cc2)CC1 [Example 2, 1-Ethyl-7-[[(1S)-1-[4-[(4-prop-2-enoylpiperazin-1-yl)methyl]phenyl]ethyl]amino]-4H-pyrimido[4,5-d][1,3]oxazin-2-one] | 110 ± 46 | 102 ± 43 | 14300 ± 3110
3 | C=CC(=O)N1CC(OCc2ccc([C@H](C)Nc3ncc4c(n3)N(CC)C(=O)OC4)cc2)C1 [Example 4, 1-Ethyl-7-[[(1S)-1-[4-[(1-prop-2-enoylazetidin-3-yl)oxymethyl]phenyl]ethyl]amino]-4H-pyrimido[4,5-d][1,3]oxazin-2-one] | 78.6 ± 18.9 | 133 ± 32 | 830 ± 1490
4 | C=CC(=O)N1CCN(c2ccc([C@H](C)Nc3ncc4c(n3)N(C(C)C)C(=O)OC4)cc2)CC1 [Example 6, 1-Isopropyl-7-[[(1S)-1-[4-(4-prop-2-enoylpiperazin-1-yl)phenyl]ethyl]amino]-4H-pyrimido[4,5-d][1,3]oxazin-2-one] | 150 ± 24 | 162 ± 42 | 25400 ± 6320
5 | C=CC(=O)N1CCC2(CC1)CN(Cc1ccc([C@H](C)Nc3ncc4c(n3)N(C(C)C)C(=O)OC4)cc1)C2 [Example 8, 1-Isopropyl-7-[[(1S)-1-[4-[(7-prop-2-enoyl-2,7-diazaspiro[3.5]nonan-2-yl)methyl]phenyl]ethyl]amino]-4H-pyrimido[4,5-d][1,3]oxazin-2-one] | 290 ± 170 | 209 ± 75 | 69400 ± 24900
6 | C=CC(=O)N1CC(N(C)Cc2ccc([C@H](C)Nc3ncc4c(n3)N(CC)C(=O)OC4)cc2)C1 [Example 10, 1-Ethyl-7-[[(1S)-1-[4-[[methyl-(1-prop-2-enoylazetidin-3-yl)amino]methyl]-phenyl]ethyl]amino]-4H-pyrimido[4,5-d][1,3]oxazin-2-one] | 260 ± 35 | 309 ± 107 | 27400 ± 18700
7 | C=CC(=O)N1CCN(Cc2ccc([C@H](C)Nc3ncc4c(n3)N([C@H](C)CO)C(=O)OC4)cc2)CC1 [Example 11, 1-[(1R)-2-Hydroxy-1-methyl-ethyl]-7-[[(1S)-1-[4-[(4-prop-2-enoylpiperazin-1-yl)methyl]phenyl]ethyl]amino]-4H-pyrimido[4,5-d][1,3]oxazin-2-one] | 80.2 ± 51.9 | 119 ± 54.1 | 12500 ± 21200
8 | C=CC(=O)N1CCC(N(C)Cc2ccc([C@H](C)Nc3ncc4c(n3)N(CC)C(=O)OC4)cc2)CC1 [Example 12, 1-Ethyl-7-[[(1S)-1-[4-[[methyl-(1-prop-2-enoyl-4-piperidyl)amino]-methyl]phenyl]ethyl]amino]-4H-pyrimido[4,5-d][1,3]oxazin-2-one] | 515 ± 86 | 457 ± 229 | 6100 ± 13300
9 | C=CC(=O)N1CC(OCc2ccc([C@H](C)Nc3ncc4c(n3)N(CC(C)C)C(=O)OC4)cc2)C1 [Example 13, 1-Isobutyl-7-[[(1S)-1-[4-[(1-prop-2-enoylazetidin-3-yl)oxymethyl]phenyl]ethyl]amino]-4H-pyrimido[4,5-d][1,3]oxazin-2-one] | 77.7 ± 19.6 | 92.4 ± 15.4 | 4620 ± 6650

Further molecules by falling IC50 [2], results first:

Row | IC50 [1] [nM] | IC50 [2] [nM] | IC50 [3] [nM] | Structure (SMILES)
10 | 81.9 ± 54.1 | 82.5 ± 58.3 | 7000 ± 13300 | C=CC(=O)N1CC2(CN(Cc3ccc([C@H](C)Nc4ncc5c(n4)N(CC)C(=O)OC5)cc3)C2)C1 [Example 14, 1-Ethyl-7-[[(1S)-1-[4-[(2-prop-2-enoyl-2,6-diazaspiro[3.3]heptan-6-yl)methyl]phenyl]ethyl]amino]-4H-pyrimido[4,5-d][1,3]oxazin-2-one]
11 | – | 77.1 ± 10.2 | 2150 ± 130 | C=CC(=O)N1CC=C(COc2ccc([C@H](C)Nc3ncc4c(n3)N(CC)C(=O)OC4)cc2)C1 [Example 22, 1-ethyl-7-[[(1S)-1-[4-[(1-prop-2-enoyl-2,5-dihydropyrrol-3-yl)methoxy]phenyl]ethyl]amino]-4H-pyrimido[4,5-d][1,3]oxazin-2-one]
12 | 41.7 ± 3.6 | 62.9 ± 18.8 | 21200 ± 32200 | C=CC(=O)N1CC(COc2ccc([C@H](C)Nc3ncc4c(n3)N(C(C)C)C(=O)OC4)cc2)C1 [Example 9, 1-Isopropyl-7-[[(1S)-1-[4-[(1-prop-2-enoylazetidin-3-yl)methoxy]-phenyl]ethyl]amino]-4H-pyrimido[4,5-d][1,3]oxazin-2-one]
13 | 56 ± 15.7 | 52.3 ± 22.5 | 7460 ± 7520 | C=CC(=O)N1CC2(CN(Cc3ccc([C@H](C)Nc4ncc5c(n4)N(CC(C)C)C(=O)OC5)cc3)C2)C1 [Example 5, 1-Isobutyl-7-[[(1S)-1-[4-[(2-prop-2-enoyl-2,6-diazaspiro[3.3]heptan-6-yl)methyl]phenyl]ethyl]amino]-4H-pyrimido[4,5-d][1,3]oxazin-2-one]
14 | 39.7 ± 26 | 44.8 ± 21.9 | 8690 ± 10200 | C=CC(=O)N1CC(CCc2ccc([C@H](C)Nc3ncc4c(n3)N(CC)C(=O)OC4)cc2)C1 [Example 7, 1-Ethyl-7-[[(1S)-1-[4-[2-(1-prop-2-enoylazetidin-3-yl)ethyl]phenyl]ethyl]amino]-4H-pyrimido[4,5-d][1,3]oxazin-2-one]
15 | 50.9 ± 13.1 | 29.5 ± 8.2 | 25300 ± 21300 | C=CC(=O)N1CCN(Cc2ccc([C@H](C)Nc3ncc4c(n3)N(CC(C)C)C(=O)OC4)cc2)CC1 [Example 3, 1-Isobutyl-7-[[(1S)-1-[4-[(4-prop-2-enoylpiperazin-1-yl)methyl]phenyl]ethyl]amino]-4H-pyrimido[4,5-d][1,3]oxazin-2-one]
